Tests used:
[1] = target: T1, TRKB-ECD-His (extracellular domain of TRKB) (Homo sapiens, UniProt Q16620); test: Tryptophan fluorescence quenching assay; details: TRKB-ECD-His 50 nM in PBS; excitation 295 nm, emission 330 nm; compounds 0–1000 nM; read-out: TRKB-ECD binding affinity (KD)
T1 construct: extracellular domain of TRKB (TRKB-ECD) (residues 32–429, XP_016870240); Saccharomyces cerevisiae α-factor secretion signal (N, cleaved yes); made in house; host or cells: Pichia pastoris
Description: The cDNA fragment containing the full-length extracellular domain of TRKB (TRKB-ECD) (residues 32–429, XP_016870240) was amplified from pDONR223-NTRK2 plasmid (Addgene, Watertown, MA, USA) using forward primer 5′-ctcgagaaaagagaggctgaagctTGTCCCACGTCCTGAAATG (XhoI site and Kex2 cleavage of the signal sequence in lowercase letters) and reverse primer 5′-gtcgac[…] (SalI site in lowercase letters). After cloning and sequencing, the TRKB-ECD fragment was excised with XhoI and SalI and subcloned into Pichia expression vector pGAPZα A (Invitrogen). The AvrII-linearized plasmid was then transformed into Pichia pastoris, and stable transformants selected and cultured at 30 °C for 4 days for constitutive expression of recombinant His-tagged TRKB-ECD. The secreted TRKB-ECD-His in cultured medium was purified using Ni-NTA His•Bind resins (Novagen, Madison, WI 53719, USA) according to the supplier’s instructions. Protein purity was examined by Coomassie blue staining of SDS-polyacrylamide gel as well as immunoblotting using anti-His (1:2000; Acris, Herford, Germany) and anti-TRKB (1:1000; Cell Signaling) antibodies.
The interaction between TRKB-ECD-His and LM-031, LMDS-1 or LMDS-2 was determined by tryptophan fluorescence titration. 7,8-DHF (Sigma-Aldrich) was included as a positive control. Tryptophan fluorescence spectra of TRKB-ECD-His (50 nM in PBS) were obtained before and after titration with different concentrations of test compounds (0–1000 nM). The fluorescent quenching was conducted in a cuvette with a 1 cm path length cell by an F-7000 fluorescence spectrophotometer (Hitachi, Tokyo, Japan) at room temperature. The intrinsic fluorescence spectra of TRKB were recorded with excitation wavelength set at 295 nm and emission wavelength in the range 300–400 nm. The dissociation constant (KD) of 7,8-DHF, LM-031, LMDS-1 and LMDS-2 to TRKB was determined by fitting the normalized fluorescence intensity at 330 nm under different concentrations of test compounds using the equation derived from Liu et al.:KD = [P]T (f − 1) + [D]T (1/f − 1), where f is the fractional change, and [P]Tand [D]Tare the total concentration of TRKB-ECD-His protein and test compound, respectively.

[2] = target: T2, E. coli-expressed ΔK280 tauRD protein (Homo sapiens, UniProt P10636, DEL597-597); test: Anti-ΔK280 tauRD aggregation assay (thioflavin T); assay type: biochemical; details: compounds tested 1–10 μM, 20 μM protein, 48 h, linear interpolation, read-out: EC50 for ΔK280 tauRD aggregation inhibition
T2 construct: assessed by using E. coli-expressed ΔK280 tauRD protein; made in house; host or cells: E. coli
Procedure: Thioflavin T is widely used to visualize and quantify the presence of misfolded amyloid protein aggregates in vitro [74]. The tau aggregation inhibiting potential of Congo red, LM-031 and LMDS-1 to -4 was assessed by using E. coli-expressed ΔK280 tauRD protein [28]. Briefly, purified ΔK280 tauRD protein (20 μM) was incubated with Congo red or coumarin compounds (1–10 μM) in 150 mM NaCl and 20 mM Tris-HCl pH8.0, at 37 °C with shaking for 48 h to form aggregates. Then, thioflavin T (final 5 μM; Acros Organics, Geel, Belgium) was added and incubated for 25 min at room temperature. Fluorescence intensity of samples was recorded at excitation/emission wavelengths of 420/485 nm using an FLx800 microplate reader (BioTek, Winooski, VT, USA). The half maximal effective concentration (EC50) values were calculated by using a linear interpolation method.

[3] = High-content analysis of ΔK280 tauRD-DsRed fluorescence and cell number (folding reporter); assay type: cell-based, human; details: human; induced ΔK280 tauRD-DsRed SH-SY5Y; compounds 2.5–10 µM; read-out: IC50 cytotoxicity based on the cell number analyzed
Procedure: (§1) On day 1, ∆K280 tauRD-DsRed SH-SY5Y cells were seeded in a 96-well plate (3 × 10^4/well), with retinoic acid (10 µM; Sigma-Aldrich) added to induce neuronal differentiation. […] […] For ROS measurement, dichloro-dihydro-fluorescein diacetate (DCFH-DA, 10 µM; Invitrogen, Carlsbad, CA, USA) was added to the cells on day 8 and incubated at 37 °C for 30 min.

[4] = DPPH free radical-scavenging assay; details: compounds tested 10–80 μM; DPPH 100 µM; linear interpolation
Procedure: The potential free radical-scavenging activity of test compounds was assayed using stable free radical 1,1-diphenyl-2-picrylhydrazyl (DPPH) (Sigma-Aldrich). Briefly, kaempferol, LM-031 or LMDS-1 to -4 (10–80 µM) was added to DPPH (100 µM in 99% ethanol). The solution was vortexed for 15 s, left for 30 min at room temperature, the mixture was transferred to a 96-well UV-transparent microplate and the absorbance at 517 nm was measured using a Multiskan^TM GO microplate spectrophotometer (Thermo Fisher Scientific, Waltham, MA, USA). Radical-scavenging activity was calculated using the equation: 1 − (absorbance of sample/absorbance of control) × 100%, and EC50 estimated using the linear interpolation method.

[5] = Oxygen radical antioxidant capacity (ORAC) assay; details: compound at 100 μM
Procedure: In addition, an oxygen radical antioxidant capacity (ORAC) assay was performed using an OxiSelect™ kit according to the manufacturer’s instruction (Cell Biolabs, San Diego, CA, USA). Briefly, Trolox standards (2.5–50 μM) and samples (4–100 μM) were diluted with 50% acetone. Blank (50% acetone), standards and samples were mixed with fluorescein and incubated at 37 °C for 30 min. Following the free radical initiator 2,2′-azobis(2-methylpropionamidine) dihydrochloride (AAPH), the produced peroxyl radicals (ROO•) quench the fluorescent probe over time. Antioxidants present in the assay block the peroxyl radical oxidation of the fluorescent probe. The course of the reaction was recorded for 60 min, with one measurement every five minutes using a BioTek FLx800 microplate reader. The excitation and emission wavelengths were set at 480 nm and 520 nm, respectively. To quantify the oxygen radical antioxidant activity in a sample, the area under the curve (AUC) for blank, standard and samples was calculated. After subtraction of the blank, the equivalent Trolox concentrations of samples were expressed based on the Trolox standard curve.

[6] = system: ΔK280 tauRD-DsRed SH-SY5Y folding reporter cells; test: High-content analysis of ΔK280 tauRD-DsRed fluorescence and cell number (folding reporter); assay type: cell-based, human; details: BDNF at 100 ng/mL, LMDS-1/2 at 10 μM; untreated = 100%; Figure 6A
Procedure: as §1

p-CREB (S133) = test: Immunoblot of p-CREB (S133); assay type: cell-based, human; details: BDNF 100 ng/mL, LMDS-1/2 10 μM; induced untreated 72%; Figure 6B
Procedure: (§2) ∆K280 tauRD-DsRed SH-SY5Y cells in 6-well plates (5 × 10^5/well) were treated with retinoic acid (10 µM) on day 1, followed by LMDS-1 or -2 (10 µM) and doxycycline (2 µg/mL) addition on day 2 as described. ERK inhibitor U0126 or PI3K inhibitor wortmannin (10 μM) (LC Laboratories, Woburn, MA, USA) was added on day 6. On day 8, the cells were collected for BDNF, BCL2, BAX and total/phosphorylated TRKB, ERK, AKT, CREB protein analyses as described.
(§3) ∆K280 tauRD-DsRed SH-SY5Y cells were lysed in buffer containing 50 mM Tris-HCl (pH 8.0), 150 mM NaCl, 1 mM EDTA (pH 8.0), 1 mM EGTA (pH 8.0), 0.1% SDS, 0.5% sodium deoxycholate, 1% Triton X-100 and protease (Sigma-Aldrich)/phosphatase (Roche, Basel, Switzerland) inhibitor cocktails. After two sonications with an interval of 30 min on ice, cell lysates were collected by centrifugation at 14,000× g for 30 min at 4 °C. Protein concentrations were determined using a Bradford assay (Bio-Rad, Hercules, CA, USA). Protein samples (25 µg) were separated by 10–12% SDS-PAGE and transferred to polyvinylidene difluoride (PVDF) membranes (Sigma-Aldrich). After blocking for 2 h with 10% skimmed milk or 5% BSA in 0.1% Tween 20 in Tris-buffered saline (TBST), the membrane was incubated with primary antibody against BDNF (1:500; Santa Cruz, Santa Cruz, CA, USA), BCL2 (1:500; BioVision), BAX (1:500; BioVision), TRKB (1:1000; Cell Signaling, Danvers, MA, USA), p-TRKB (Y516) (1:1000; Cell Signaling), p-TRKB (Y817) (1:1000; Millipore, Billerica, MA, USA), ERK (1:1000; Cell Signaling), p-ERK (T202/Y204) (1:500; Cell Signaling), AKT (1:1000; Cell Signaling), p-AKT (S473) (1:1000; Cell Signaling), CREB (1:1000; Santa Cruz), p-CREB (S133) (1:1000; Millipore), JNK (1:1000; Cell Signaling), p-JNK (T183/Y185) (1:1000; Cell Signaling) or loading control glyceraldehyde-3-phosphate dehydrogenase (GAPDH) (1:1000; MDBio, Taipei, Taiwan). After three washes with TBST, the immune complexes were detected using horseradish peroxidase-conjugated goat anti-mouse or goat anti-rabbit secondary IgG antibody (1:5000, GeneTex, Irvine, CA, USA) and enhanced chemiluminescence substrates luminol and peroxide (Millipore). The primary and secondary antibodies used were diluted with TBST. The chemiluminescent detection was performed on ImageQuant™ LAS 4000mini (GE Healthcare).

p-TRKB (Y516 and Y817) = test: Immunoblot of p-TRKB (Y516 and Y817); assay type: cell-based, human; details: BDNF 100 ng/mL, LMDS-1/2 10 μM; induced untreated 77–83%; Figure 6B
Procedure: as §2, §3

[7] = system: ΔK280 tauRD-DsRed SH-SY5Y cells; test: High-content analysis of neurite outgrowth; assay type: cell-based, human; details: 10 µM
Procedure: As described, ∆K280 tauRD-DsRed SH-SY5Y cells were seeded in a 24-well plate (5 × 10^4/well) with retinoic acid addition on day 1, treated with tested compounds (10 µM) and ∆K280 tauRD-DsRed expression was induced with doxycycline (2 μg/mL) on day 2. On day 8, after being fixed in 4% paraformaldehyde for 15 min, permeabilized in 0.1% Triton X-100 for 10 min and blocked in 3% bovine serum albumin (BSA) for 20 min, the cells were stained with TUBB3 (neuronal class III β-tubulin) primary antibody (1:1000; BioLegend, San Diego, CA, USA) at 4 °C overnight, followed by goat anti-rabbit Alexa Fluor® 555 secondary antibody (1:1000; Molecular probes) at room temperature for 2 h, with 4′-6-diamidino-2-phenylindole (DAPI, 0.1 µg/mL; Sigma-Aldrich) included for nuclei staining. Neuronal images were captured using the high-content analysis system as described. Neurite total length (μm), processes (primary neurite extensions projecting directly from the cell body) and branching (points at which primary neurites bifurcated) were analyzed using Neurite Outgrowth Application Module (MetaXpress; Molecular Devices). Around 5000 cells were analyzed in each of three independent experiments for each sample.

T2 sequence (P10636 with tags, fused parts or gaps DEL597-597): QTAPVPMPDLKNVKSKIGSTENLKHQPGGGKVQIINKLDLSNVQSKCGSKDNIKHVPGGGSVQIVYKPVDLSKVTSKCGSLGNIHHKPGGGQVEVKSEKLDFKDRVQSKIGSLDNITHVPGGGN
T1 sequence (Q16620 32-429): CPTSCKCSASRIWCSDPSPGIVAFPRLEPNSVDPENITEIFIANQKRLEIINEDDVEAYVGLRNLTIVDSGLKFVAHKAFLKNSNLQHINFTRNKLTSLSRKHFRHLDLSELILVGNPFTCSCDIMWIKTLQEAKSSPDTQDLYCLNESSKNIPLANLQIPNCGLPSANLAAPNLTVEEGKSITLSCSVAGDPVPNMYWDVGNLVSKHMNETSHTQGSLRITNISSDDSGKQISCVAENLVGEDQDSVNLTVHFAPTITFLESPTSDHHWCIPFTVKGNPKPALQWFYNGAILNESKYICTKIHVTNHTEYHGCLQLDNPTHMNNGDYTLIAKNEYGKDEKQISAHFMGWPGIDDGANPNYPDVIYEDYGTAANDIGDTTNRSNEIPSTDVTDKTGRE

| Molecule | EC50 [2] [µM] | IC50 at 6 days [3] [µM] | EC50 [4] [µM] | Oxygen radical absorbance capacity, activity equivalent to Trolox [5] [μM Trolox] | further results |
| --- | --- | --- | --- | --- | --- |
| O=c1cc(-c2ccccc2)oc2c(O)c(O)ccc12 [7,8-DHF, 7,8-dihydroxyflavone, reference compound] | – | – | – | – | Kd [1]: 0.016 ± 0.0034 µM |
| COc1ccc2cc(C(=O)c3ccccc3)c(=O)oc2c1 [LMDS-3] | 21 | 29 | 132 | 12 | – |
| O=c1c(O)c(-c2ccc(O)cc2)oc2cc(O)cc(O)c12 [Kaempferol, kaempferol, reference compound] | – | – | 28 | – | – |
| CC(=O)Oc1ccc2cc(C(=O)c3ccccc3)c(=O)oc2c1 [LMDS-4] | 14 | 25 | 126 | 16 | – |
| BDNF: Brain-derived neurotrophic factor | – | – | – | – | DsRed fluorescence intensity [6]: 111–112%; p-CREB level (p-CREB (S133)): 90–95%; p-TRKB (Y516/Y817) level (p-TRKB (Y516 and Y817)): 96–104% |
| Nc1c(/N=N/c2ccc(-c3ccc(/N=N/c4cc(S(=O)(=O)O)c5ccccc5c4N)cc3)cc2)cc(S(=O)(=O)O)c2ccccc12 [Congo red, reference compound] | – | 45 | – | – | Neurite branching ([7]; induced untreated 0.87, uninduced 0.99): 1.00–1.06; Neurite length ([7]; induced untreated 27.2 μm, uninduced 30.9 μm): 30.3–31.5 μm |
